According to ChEMBL document CHEMBL1201861, “Genomics of Drug Sensitity in Cancer screening data, Wellcome Trust Sanger Institute”:

Tests used:
VM-CUB-1 = test: cells; type: functional, cell-based, Homo sapiens; conditions: Homo sapiens, VM-CUB-1;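 further: cell viability assay measuring growth inhibition of the human VM-CUB-1 cell line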
Description: SANGER: Inhibition of human VM-CUB-1 cell growth in a cell viability assay.

HN = test: cells; type: functional, cell-based, Homo sapiens; conditions: Homo sapiens, HN
Description: SANGER: Inhibition of human HN cell growth in a cell viability assay.

NCI-H358 = test: cells; type: functional, cell-based, Homo sapiens; conditions: Homo sapiens, NCI-H358;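 further: growth inhibition of NCI-H358 human cells, read out with a cell viability assay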
Description: SANGER: Inhibition of human NCI-H358 cell growth in a cell viability assay.

NCI-H1623 = test: cells; type: functional, cell-based, Homo sapiens; conditions: Homo sapiens, NCI-H1623;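 further: cell viability assay used as the read-out for growth inhibition of NCI-H1623 cells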
Description: SANGER: Inhibition of human NCI-H1623 cell growth in a cell viability assay.

LU-99A = test: cells; type: functional, cell-based, Homo sapiens; conditions: Homo sapiens, LU-99A;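 further: growth inhibition of LU-99A cells, read out with a cell viability assay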
Description: SANGER: Inhibition of human LU-99A cell growth in a cell viability assay.

IGROV-1 = test: cells; type: functional, cell-based, Homo sapiens; conditions: Homo sapiens, IGROV-1;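 further: reduction of IGROV-1 cell growth, read out with a viability assay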
Description: SANGER: Inhibition of human IGROV-1 cell growth in a cell viability assay.

HEC-1 = test: cells; type: functional, cell-based, Homo sapiens; conditions: Homo sapiens, HEC-1;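 further: growth inhibition of the cell line, read out with a cell viability assay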
Description: SANGER: Inhibition of human HEC-1 cell growth in a cell viability assay.

NCI-H64 = test: cells; type: functional, cell-based, Homo sapiens; conditions: Homo sapiens, NCI-H64;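 further: growth inhibition of NCI-H64 cells, read out with a cell viability assay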
Description: SANGER: Inhibition of human NCI-H64 cell growth in a cell viability assay.

SU-DHL-1 = test: SANGER: Inhibition of human SU-DHL-1 cell growth in a cell viability assay.; type: functional, cell-based; conditions: Homo sapiens, SU-DHL-1
NB1 = test: cells; type: functional, cell-based, Homo sapiens; conditions: Homo sapiens, NB1;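 further: reduction of NB1 cell proliferation, read out with a viability assay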
Description: SANGER: Inhibition of human NB1 cell growth in a cell viability assay.

LN-405 = test: cells; type: functional, cell-based, Homo sapiens; conditions: Homo sapiens, LN-405
Description: SANGER: Inhibition of human LN-405 cell growth in a cell viability assay.

NCCIT = test: SANGER: Inhibition of human NCCIT cell growth in a cell viability assay.; type: functional, cell-based; conditions: Homo sapiens, NCCIT
KYSE-510 = test: cells; type: functional, cell-based, Homo sapiens; conditions: Homo sapiens, KYSE-510;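 further: cell viability readout used to measure how strongly growth of the cell line is suppressed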
Description: SANGER: Inhibition of human KYSE-510 cell growth in a cell viability assay.

SW780 = test: cells; type: functional, cell-based, Homo sapiens; conditions: Homo sapiens, SW780;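 further: growth inhibition of the cells, read out with a cell viability assay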
Description: SANGER: Inhibition of human SW780 cell growth in a cell viability assay.

LC-1F = test: cells; type: functional, cell-based, Homo sapiens; conditions: Homo sapiens, LC-1F;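 further: growth inhibition of human LC-1F cells, read out with a cell viability assay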
Description: SANGER: Inhibition of human LC-1F cell growth in a cell viability assay.

S-117 = test: cells; type: functional, cell-based, Homo sapiens; conditions: Homo sapiens, S-117
Description: SANGER: Inhibition of human S-117 cell growth in a cell viability assay.

LCLC-97TM1 = test: cells; type: functional, cell-based, Homo sapiens; conditions: Homo sapiens, LCLC-97TM1;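 further: cell viability assay measuring growth inhibition of human LCLC-97TM1 cells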
Description: SANGER: Inhibition of human LCLC-97TM1 cell growth in a cell viability assay.

GMS-10 = test: cells; type: functional, cell-based, Homo sapiens; conditions: Homo sapiens, GMS-10;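 further: growth inhibition of GMS-10 cells, read out as cell viability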
Description: SANGER: Inhibition of human GMS-10 cell growth in a cell viability assay.

UACC-62 = test: cells; type: functional, cell-based, Homo sapiens; conditions: Homo sapiens, UACC-62;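 further: growth inhibition of human UACC-62 cells, read out by a cell viability assay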
Description: SANGER: Inhibition of human UACC-62 cell growth in a cell viability assay.

CP50-MEL-B = test: cells; type: functional, cell-based, Homo sapiens; conditions: Homo sapiens, CP50-MEL-B;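 further: growth inhibition of the human cell line, measured with a cell viability read-out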
Description: SANGER: Inhibition of human CP50-MEL-B cell growth in a cell viability assay.

MKN-1 = test: cells; type: functional, cell-based, Homo sapiens; conditions: Homo sapiens, MKN-1;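 further: growth inhibition of human MKN1 cells, read out by a cell viability measurement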
Description: SANGER: Inhibition of human MKN1 cell growth in a cell viability assay.

639-V = test: cells; type: functional, cell-based, Homo sapiens; conditions: Homo sapiens, 639-V;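 further: growth inhibition of 639-V cells, read out with a cell viability assay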
Description: SANGER: Inhibition of human 639-V cell growth in a cell viability assay.

CaR-1 = test: cells; type: functional, cell-based, Homo sapiens; conditions: Homo sapiens, CaR-1;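 further: growth inhibition of human CaR-1 cancer cells, read out with a cell viability assay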
Description: SANGER: Inhibition of human CaR-1 cell growth in a cell viability assay.

PANC-03-27 = test: cells; type: functional, cell-based, Homo sapiens; conditions: Homo sapiens, PANC-03-27
Description: SANGER: Inhibition of human PANC-03-27 cell growth in a cell viability assay.

NCI-H1993 = test: cells; type: functional, cell-based, Homo sapiens; conditions: Homo sapiens, NCI-H1993;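 further: growth inhibition of the cancer cell line, assessed with a cell viability assay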
Description: SANGER: Inhibition of human NCI-H1993 cell growth in a cell viability assay.

C3A = test: cells; type: functional, cell-based, Homo sapiens; conditions: Homo sapiens, C3A;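 further: growth inhibition of C3A human cells, quantified with a cell viability readout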
Description: SANGER: Inhibition of human C3A cell growth in a cell viability assay.

HCT-15 = test: cells; type: functional, cell-based, Homo sapiens; conditions: Homo sapiens, HCT-15;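 further: cell viability readout, IC50 reflecting suppression of HCT-15 cell growth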
Description: SANGER: Inhibition of human HCT-15 cell growth in a cell viability assay.

Ca9-22 = test: cells; type: functional, cell-based, Homo sapiens; conditions: Homo sapiens, Ca9-22;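 further: growth inhibition of Ca9-22 cells, read out with a cell viability assay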
Description: SANGER: Inhibition of human Ca9-22 cell growth in a cell viability assay.

BHT-101 = test: cells; type: functional, cell-based, Homo sapiens; conditions: Homo sapiens, BHT-101
Description: SANGER: Inhibition of human BHT-101 cell growth in a cell viability assay.

CAL-51 = test: cells; type: functional, cell-based, Homo sapiens; conditions: Homo sapiens, CAL-51;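 further: human CAL-51 cell line, growth inhibition read out via a cell viability assay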
Description: SANGER: Inhibition of human CAL-51 cell growth in a cell viability assay.

NCI-H661 = test: cells; type: functional, cell-based, Homo sapiens; conditions: Homo sapiens, NCI-H661;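 further: cell viability assay read-out, IC50 being the concentration that inhibits growth of the cells by half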
Description: SANGER: Inhibition of human NCI-H661 cell growth in a cell viability assay.

SAS = test: cells; type: functional, cell-based, Homo sapiens; conditions: Homo sapiens, SAS;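 further: growth inhibition of SAS cells, read out with a cell viability assay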
Description: SANGER: Inhibition of human SAS cell growth in a cell viability assay.

SW48 = test: cells; type: functional, cell-based, Homo sapiens; conditions: Homo sapiens, SW48;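 further: growth inhibition of SW48 cells, read out with a cell viability assay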
Description: SANGER: Inhibition of human SW48 cell growth in a cell viability assay.

T-24 = test: cells; type: functional, cell-based, Homo sapiens; conditions: Homo sapiens, T-24;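 further: growth inhibition of T-24 cells, read out with a cell viability assay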
Description: SANGER: Inhibition of human T-24 cell growth in a cell viability assay.

CAL-62 = test: cells; type: functional, cell-based, Homo sapiens; conditions: Homo sapiens, CAL-62;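 further: growth inhibition of CAL-62 cells, read out with a cell viability assay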
Description: SANGER: Inhibition of human CAL-62 cell growth in a cell viability assay.

NCI-H716 = test: cells; type: functional, cell-based, Homo sapiens; conditions: Homo sapiens, NCI-H716;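 further: growth inhibition of human NCI-H716 cells, measured by a cell viability assay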
Description: SANGER: Inhibition of human NCI-H716 cell growth in a cell viability assay.

TE-15 = test: cells; type: functional, cell-based, Homo sapiens; conditions: Homo sapiens, TE-15;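 further: cell viability readout of growth inhibition in TE-15 cells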
Description: SANGER: Inhibition of human TE-15 cell growth in a cell viability assay.

CAL-39 = test: cells; type: functional, cell-based, Homo sapiens; conditions: Homo sapiens, CAL-39;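 further: cell viability assay measuring growth inhibition of CAL-39 cells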
Description: SANGER: Inhibition of human CAL-39 cell growth in a cell viability assay.

SW756 = test: cells; type: functional, cell-based, Homo sapiens; conditions: Homo sapiens, SW756;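 further: growth inhibition of human SW756 cells, read out with a cell viability assay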
Description: SANGER: Inhibition of human SW756 cell growth in a cell viability assay.

HuO-3N1 = test: cells; type: functional, cell-based, Homo sapiens; conditions: Homo sapiens, HuO-3N1;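 further: cell viability readout used to measure how strongly compounds suppress proliferation of human HuO-3N1 cells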
Description: SANGER: Inhibition of human HuO-3N1 cell growth in a cell viability assay.

NCI-H1793 = test: cells; type: functional, cell-based, Homo sapiens; conditions: Homo sapiens, NCI-H1793;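 further: cell growth inhibition, read out by a cell viability assay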
Description: SANGER: Inhibition of human NCI-H1793 cell growth in a cell viability assay.

H4 = test: cells; type: functional, cell-based, Homo sapiens; conditions: Homo sapiens, H4
Description: SANGER: Inhibition of human H4 cell growth in a cell viability assay.

CMK = test: cells; type: functional, cell-based, Homo sapiens; conditions: Homo sapiens, CMK;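 further: growth inhibition of CMK cells, read out as cell viability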
Description: SANGER: Inhibition of human CMK cell growth in a cell viability assay.

HTC-C3 = test: cells; type: functional, cell-based, Homo sapiens; conditions: Homo sapiens, HTC-C3;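 further: inhibition of cell growth, read out with a cell viability assay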
Description: SANGER: Inhibition of human HTC-C3 cell growth in a cell viability assay.

NCI-H1417 = test: cells; type: functional, cell-based, Homo sapiens; conditions: Homo sapiens, NCI-H1417;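 further: human NCI-H1417 cells, growth inhibition determined with a cell viability readout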
Description: SANGER: Inhibition of human NCI-H1417 cell growth in a cell viability assay.

HCC38 = test: cells; type: functional, cell-based, Homo sapiens; conditions: Homo sapiens, HCC38;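 further: cell viability assay on the human HCC38 cell line, with IC50 marking the concentration that inhibits cell growth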
Description: SANGER: Inhibition of human HCC38 cell growth in a cell viability assay.

Q: Which results are given for Cc1cc([N+](=O)[O-])ccc1NS(=O)(=O)c1cc(Cl)ccc1Cl?
A: IC50 (VM-CUB-1): 8.15 µM; IC50 (HN): > 32 µM; IC50 (NCI-H358): 6.31 µM; IC50 (NCI-H1623): > 32 µM; IC50 (LU-99A): 1.24 µM; IC50 (IGROV-1): 2.66 µM; IC50 (HEC-1): 8.24 µM; IC50 (NCI-H64): > 32 µM; IC50 (SU-DHL-1): > 32 µM; IC50 (NB1): 8.38 µM; IC50 (LN-405): 11.9 µM; IC50 (NCCIT): 13.4 µM; IC50 (KYSE-510): 4.84 µM; IC50 (SW780): 6.1 µM; IC50 (LC-1F): > 32 µM; IC50 (S-117): < 0.125 µM; IC50 (LCLC-97TM1): 3.18 µM; IC50 (GMS-10): 20.1 µM; IC50 (UACC-62): 0.256 µM; IC50 (CP50-MEL-B): 1.03 µM; IC50 (MKN-1): 4.21 µM; IC50 (639-V): 1.61 µM; IC50 (CaR-1): > 32 µM; IC50 (PANC-03-27): 6.38 µM; IC50 (NCI-H1993): 17.2 µM; IC50 (C3A): 2.24 µM; IC50 (HCT-15): 6.87 µM; IC50 (Ca9-22): 6 µM; IC50 (BHT-101): 21.4 µM; IC50 (CAL-51): 2.75 µM; IC50 (NCI-H661): 2.82 µM; IC50 (SAS): > 32 µM; IC50 (SW48): 2.48 µM; IC50 (T-24): > 32 µM; IC50 (CAL-62): 2.65 µM; IC50 (NCI-H716): > 32 µM; IC50 (TE-15): 2.15 µM; IC50 (CAL-39): 2.16 µM; IC50 (SW756): 2.97 µM; IC50 (HuO-3N1): 13.4 µM; IC50 (NCI-H1793): > 32 µM; IC50 (H4): 2.59 µM; IC50 (CMK): 4.81 µM; IC50 (HTC-C3): 3.03 µM; IC50 (NCI-H1417): 23.2 µM; IC50 (HCC38): 7.96 µM

Q: Which results are given for Oc1ccc2ccccc2c1SSc1c(O)ccc2ccccc12?
A: IC50 (VM-CUB-1): > 32 µM; IC50 (HN): > 32 µM; IC50 (NCI-H358): > 32 µM; IC50 (NCI-H1623): > 32 µM; IC50 (LU-99A): > 32 µM; IC50 (IGROV-1): > 32 µM; IC50 (HEC-1): > 32 µM; IC50 (NCI-H64): > 32 µM; IC50 (SU-DHL-1): > 32 µM; IC50 (NB1): 21.9 µM; IC50 (LN-405): > 32 µM; IC50 (NCCIT): 29.8 µM; IC50 (KYSE-510): > 32 µM; IC50 (SW780): > 32 µM; IC50 (LC-1F): > 32 µM; IC50 (S-117): 31.4 µM; IC50 (LCLC-97TM1): > 32 µM; IC50 (GMS-10): > 32 µM; IC50 (UACC-62): > 32 µM; IC50 (CP50-MEL-B): > 32 µM; IC50 (MKN-1): > 32 µM; IC50 (639-V): > 32 µM; IC50 (CaR-1): > 32 µM; IC50 (PANC-03-27): > 32 µM; IC50 (NCI-H1993): > 32 µM; IC50 (C3A): 30.3 µM; IC50 (HCT-15): > 32 µM; IC50 (Ca9-22): 28.1 µM; IC50 (BHT-101): > 32 µM; IC50 (CAL-51): 3.55 µM; IC50 (NCI-H661): > 32 µM; IC50 (SAS): > 32 µM; IC50 (SW48): 21.9 µM; IC50 (T-24): > 32 µM; IC50 (CAL-62): > 32 µM; IC50 (NCI-H716): > 32 µM; IC50 (TE-15): > 32 µM; IC50 (CAL-39): > 32 µM; IC50 (SW756): > 32 µM; IC50 (HuO-3N1): > 32 µM; IC50 (NCI-H1793): > 32 µM; IC50 (H4): > 32 µM; IC50 (CMK): 3.15 µM; IC50 (HTC-C3): > 32 µM; IC50 (NCI-H1417): > 32 µM; IC50 (HCC38): > 32 µM
